Data reported in PubChem BioAssay (NCI).
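Tested at 5 concentrations; 48 h exposure; 96-well plates; endpoints linearly interpolated, else capped at highest concentration. Definition used: TGI = concentration required for complete inhibition of growth.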

Assays:
Test in all cases: growth of human tumour cells (NCI), 48 h
[1] = tested on: A498 renal
[2] = tested on: A549 NSCLC
[3] = tested on: ACHN renal
[4] = tested on: CAKI-1 renal
[5] = tested on: CCRF-CEM leukemia
[6] = tested on: COLO 205 colon
[7] = tested on: DU-145 prostate
[8] = tested on: HCC-2998 colon
[9] = tested on: HCT-116 colon
[10] = tested on: HCT-15 colon
[11] = tested on: HOP-62 NSCLC
[12] = tested on: HOP-92 NSCLC
[13] = tested on: HS 578T breast
[14] = tested on: HT29 colon
[15] = tested on: IGROV1 ovarian
[16] = tested on: K-562 leukemia
[17] = tested on: LOX IMVI melanoma
[18] = tested on: M14 melanoma
[19] = tested on: MCF7 breast
[20] = tested on: MDA-MB-231 breast
[21] = tested on: MDA-MB-435
[22] = tested on: MDA-N
[23] = tested on: MOLT-4 leukemia
[24] = tested on: NCI-H226 lung
[25] = tested on: NCI-H23 lung
[26] = tested on: NCI-H460 lung
[27] = tested on: NCI-H522 lung
[28] = tested on: NCI/ADR-RES ovarian
[29] = tested on: OVCAR-3 ovarian
[30] = tested on: OVCAR-4 ovarian
[31] = tested on: OVCAR-5 ovarian
[32] = tested on: OVCAR-8 ovarian
[33] = tested on: PC-3 prostate
[34] = tested on: RPMI-8226 leukemia
[35] = tested on: SF-295 CNS
[36] = tested on: SK-MEL-2 melanoma
[37] = tested on: SK-MEL-28 melanoma
[38] = tested on: SK-MEL-5 melanoma
[39] = tested on: SK-OV-3 ovarian
[40] = tested on: SN12C renal
[41] = tested on: SNB-19 CNS
[42] = tested on: SR leukemia
[43] = tested on: SW-620 colon
[44] = tested on: T-47D breast
[45] = tested on: TK-10 renal
[46] = tested on: U251 CNS
[47] = tested on: UACC-257 melanoma
[48] = tested on: UO-31 renal
[49] = tested on: BT-549 breast
[50] = tested on: HL-60(TB) leukemia
[51] = tested on: KM12 colon
[52] = tested on: MALME-3M melanoma

Question: Which results are given for `COP(=O)(O)C(N)Cc1c[nH]c2ccccc12` (centres undefined)?
Answer: TGI [1]: > 100 µM; TGI [2]: > 100 µM; TGI [3]: > 100 µM; TGI [4]: > 100 µM; TGI [5]: > 100 µM; TGI [6]: > 100 µM; TGI [7]: > 100 µM; TGI [8]: > 100 µM; TGI [9]: > 100 µM; TGI [10]: > 100 µM; TGI [11]: > 100 µM; TGI [12]: > 100 µM; TGI [13]: > 100 µM; TGI [14]: > 100 µM; TGI [15]: > 100 µM; TGI [16]: > 100 µM; TGI [17]: > 100 µM; TGI [18]: > 100 µM; TGI [19]: > 100 µM; TGI [20]: > 100 µM; TGI [21]: > 100 µM; TGI [22]: > 100 µM; TGI [23]: > 100 µM; TGI [24]: > 100 µM; TGI [25]: > 100 µM; TGI [26]: > 100 µM; TGI [27]: > 100 µM; TGI [28]: > 100 µM; TGI [29]: > 100 µM; TGI [30]: > 100 µM; TGI [31]: > 100 µM; TGI [32]: > 100 µM; TGI [33]: > 100 µM; TGI [34]: > 100 µM; TGI [35]: > 100 µM; TGI [36]: > 100 µM; TGI [37]: > 100 µM; TGI [38]: > 100 µM; TGI [39]: > 100 µM; TGI [40]: > 100 µM; TGI [41]: > 100 µM; TGI [42]: > 100 µM; TGI [43]: > 100 µM; TGI [44]: > 100 µM; TGI [45]: > 100 µM; TGI [46]: > 100 µM; TGI [47]: > 100 µM; TGI [48]: > 100 µM

Question: For `COc1ccccc1C1(C)SCc2nc3ccccc3n21` (centres undefined), which TGI [49] is on record?
Answer: Its TGI is > 10 µM.

Question: What about the TGI [5] of the same compound?
Answer: Its TGI is > 10 µM.

Question: And the TGI [7]?
Answer: Its TGI is > 10 µM.

Question: And the TGI [10]?
Answer: The TGI was > 10 µM.

Question: What about the TGI [50] of the same compound?
Answer: The TGI was > 10 µM.

Question: What about the TGI [12] of the same compound?
Answer: Its TGI is > 10 µM.

Question: What about the TGI [16] of the same compound?
Answer: The TGI was > 10 µM.

Question: What about the TGI [51] of the same compound?
Answer: Its TGI is > 10 µM.

Question: And the TGI [17]?
Answer: The TGI was > 10 µM.

Question: What about the TGI [18] of the same compound?
Answer: Its TGI is > 10 µM.

Question: And the TGI [52]?
Answer: The TGI was > 10 µM.

Question: And the TGI [19]?
Answer: Its TGI is > 10 µM.

Question: What about the TGI [21] of the same compound?
Answer: Its TGI is > 10 µM.

Question: And the TGI [22]?
Answer: The TGI was > 10 µM.

Question: What about the TGI [23] of the same compound?
Answer: Its TGI is > 10 µM.

Question: And the TGI [24]?
Answer: The TGI was > 10 µM.

Question: And the TGI [25]?
Answer: The TGI was > 10 µM.

Question: What about the TGI [27] of the same compound?
Answer: The TGI was > 10 µM.

Question: And the TGI [28]?
Answer: Its TGI is > 10 µM.

Question: And the TGI [29]?
Answer: Its TGI is > 10 µM.

Question: And the TGI [30]?
Answer: Its TGI is > 10 µM.

Question: And the TGI [31]?
Answer: Its TGI is > 10 µM.

Question: What about the TGI [33] of the same compound?
Answer: Its TGI is > 10 µM.

Question: What about the TGI [36] of the same compound?
Answer: The TGI was > 10 µM.

Question: And the TGI [40]?
Answer: The TGI was > 10 µM.

Question: What about the TGI [41] of the same compound?
Answer: Its TGI is > 10 µM.

Question: And the TGI [42]?
Answer: Its TGI is > 10 µM.

Question: What about the TGI [43] of the same compound?
Answer: The TGI was > 10 µM.

Question: And the TGI [45]?
Answer: Its TGI is > 10 µM.

Question: And the TGI [46]?
Answer: The TGI was > 10 µM.

Question: And the TGI [48]?
Answer: The TGI was > 10 µM.
